Source: PMC8151276, “An Integrated Approach toward NanoBRET Tracers for Analysis of GPCR Ligand Engagement” (Molecules, 2021)

Molecular target: T1, TSHR (Homo sapiens, UniProt P16473)
T1 construct: purchased Promega (in-house HiBiT-GPCR construct library, NanoBRET)
Assay: NanoBRET screen HiBiT-TSHR in HEK293
Assay type: binding
Method: Each tracer candidate was screened across the entire library of HiBiT-GPCR constructs using NanoBRET as the detection modality. As depicted in Figure 4A, the specificity of interactions was evaluated through decrease in BRET due to competitive displacement of a bound tracer by excess parental compound. Each tracer was analyzed for binding to each HiBiT-GPCR fusion in the absence and in the presence of competing parental compound. Briefly, HEK293 cells were transfected with HiBiT-GPCR constructs diluted into promoterless DNA to reduce expression and maximize translocation to the cell surface. Each tracer candidate was then screened at concentrations of 1 μM and 0.1 μM across cells expressing these fusions. Cells were treated for 1.5 h with tracer either alone or in the presence of 20 μM competing parental compound (i.e., control). BRET was measured upon addition of purified LgBiT and subsequent complementation with HiBiT genetically fused to a GPCR. The specificity of interactions was assessed through a decrease in BRET signal due to competitive displacement of the bound tracer. To further gauge the robustness of these interactions, the fold response over the control (i.e., BRETtracer/BRETcontrol) was calculated. We chose a 1.5-fold response, which translates to ≥7-fold signal over noise as the minimal threshold required to score an interaction as positive.
HiBiT-GPCR DNA constructs were diluted in 10 mM Tris pH 8 to a final concentration of 0.01 μg/μL, arrayed in 96-well plates and stored at −20 °C. For transfection, HEK293 cells were suspended in Opti-MEM (without phenol red) supplemented with 2% fetal bovine serum (Seradigm) and 100 units/mL penicillin–streptomycin (Gibco) at a final concentration of 220,000 cells/mL and dispensed into white 96-well plates at 90 μL/well. Subsequent transfections and screens were carried using an Agilent Bravo Automated Liquid Handling Platform. First, the 96-well HiBiT DNA arrays were diluted 25-fold in Opti-MEM (without serum or phenol red) to a final concentration of 0.0004 μg/μL and 20 μL of the diluted DNAs were transferred into new 96-well plates. Next, promoterless carrier DNA (1 μg/μL) was diluted 25-fold (0.04 μg/μL) and then dispensed into the diluted arrays at 20 μL/well. Following brief mixing, Viafect transfection reagent (Promega) diluted 16-fold into Opti-MEM was dispensed into the plates at 40 μL/well. After mixing by pipetting, plates were incubated for 10 min on the pipetting station deck. The DNA-transfection reagent complexes were then added to plates containing cells. To facilitate the screen, 10 μL of DNA-transfection reagent complexes were added in duplicates to the top 4 and bottom 4 rows, resulting in two identical 48-well arrays per plate. Plates with transfected cells were incubated for 18–20 h at 37 °C/5% CO2. A screen of each tracer across the entire library using two different concentrations requires duplicate plates of transfected cells. Depending on the number of tracers being screened, transfections can be scaled up using the same ratios. The next day, for each tracer, four 20× screening solutions in tracer dilution buffer (Promega) were prepared: two duplicates at final concentration of 20 μM and two duplicates at a final concentration of 2 μM. […] The four resulting solutions were diluted 4-fold in Opti-MEM without serum or phenol red to generate 5× solutions (5 µM and 0.5 µM tracer +/− 100 μM competing compound). To screen the library, a BioTek MultiFlo FX liquid dispenser was used to dispense 22.5 µL of tracer solution to the top 4 rows and 22.5 µL tracer + competing compound solution to the 4 bottom rows. Plates were briefly mixed on an orbital shaker and incubated for 1.5 h at room temperature. […] Plates were briefly mixed on an orbital shaker and incubated for 15 min to allow complementation.

T1 sequence (P16473 21-764): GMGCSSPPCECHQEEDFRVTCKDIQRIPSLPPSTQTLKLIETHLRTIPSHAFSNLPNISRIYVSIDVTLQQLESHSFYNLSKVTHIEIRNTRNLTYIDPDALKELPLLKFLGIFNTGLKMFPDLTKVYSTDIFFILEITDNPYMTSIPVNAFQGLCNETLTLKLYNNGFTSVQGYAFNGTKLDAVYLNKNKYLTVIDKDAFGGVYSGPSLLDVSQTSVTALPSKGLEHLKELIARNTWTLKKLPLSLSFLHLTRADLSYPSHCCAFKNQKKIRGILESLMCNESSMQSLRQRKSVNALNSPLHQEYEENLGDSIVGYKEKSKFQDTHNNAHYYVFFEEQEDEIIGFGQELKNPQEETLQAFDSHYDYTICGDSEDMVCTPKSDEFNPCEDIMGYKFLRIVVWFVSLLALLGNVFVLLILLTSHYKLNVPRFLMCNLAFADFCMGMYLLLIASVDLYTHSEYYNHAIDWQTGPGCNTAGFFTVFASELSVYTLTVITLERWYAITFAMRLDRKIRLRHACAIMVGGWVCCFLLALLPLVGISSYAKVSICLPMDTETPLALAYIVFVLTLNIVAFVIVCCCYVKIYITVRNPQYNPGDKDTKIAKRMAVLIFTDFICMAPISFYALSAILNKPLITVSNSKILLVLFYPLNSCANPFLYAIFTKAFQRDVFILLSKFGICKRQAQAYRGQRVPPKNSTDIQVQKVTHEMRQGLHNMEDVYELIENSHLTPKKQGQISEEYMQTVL

SMILES | NanoBRET Fold Response (TSHR, tracer 0.1μM) | NanoBRET Fold Response (TSHR, tracer 1μM) | also measured
COc1ccc2c(n1)c(CCNC(C)=O)cn2CCNC(=O)CCc1ccc2n1[B-](F)(F)[N+]1=C(c3ccc[nH]3)C=CC1=C2 [Azamelatonin-1-NB590] | – | – | NanoBRET Fold Response (0.1μM tracer): 1.25; NanoBRET Fold Response (1μM tracer): 0.91
CC(C)N(CC[C@H](c1ccccc1)c1cc(CCNC(=O)c2ccc(CNC(=O)CCc3ccc4n3[B-](F)(F)[N+]3=C(c5ccc[nH]5)C=CC3=C4)cc2)ccc1O)C(C)C [Tolterodine-BZ-NB590] | 0.96 | 1.08 | –
O=C(CCc1ccc2n1[B-](F)(F)[N+]1=C(c3ccc[nH]3)C=CC1=C2)NCCOCCOCCNC(=O)OCCOCCN1CCN(C2=Nc3ccccc3Sc3ccccc32)CC1 [Quetiapine-a-2-NB590] | 0.96 | 0.92 | –
CN1CCN(C2=Nc3cc(Cl)ccc3N(CC(=O)NCCOCCOCCOCCOCCNC(=O)CCc3ccc4n3[B-](F)(F)[N+]3=C(c5ccc[nH]5)C=CC3=C4)c3ccccc32)CC1 [Clozapine-c-2-NB590] | – | – | NanoBRET Fold Response (TSHR, 0.1μM tracer): 0.99; NanoBRET Fold Response (TSHR, 1μM tracer): 1.04
O=C(CCc1ccc2n1[B-](F)(F)[N+]1=C(c3ccc[nH]3)C=CC1=C2)NCc1ccc(C(=O)NCCOCCC(=O)N[C@@H]2CC[C@@]3(O)[C@H]4Cc5ccc(O)c6c5[C@@]3(CCN4CC3CC3)[C@H]2O6)cc1 [Naltrexone-3-NB590] | 1.36 | 1.06 | –
CC(C)N(CC[C@H](c1ccccc1)c1cc(CCNC(=O)CCOCCOCCOCCOCCNC(=O)CCc2ccc3n2[B-](F)(F)[N+]2=C(c4ccc[nH]4)C=CC2=C3)ccc1O)C(C)C [Tolterodine-2-NB590] | 0.69 | 1.20 | –
Cc1nc2n(c(=O)c1CCN1CCC(c3noc4cc(F)ccc34)CC1)CCCC2OC(=O)NCCOCCOCCOCCOCCNC(=O)CCc1ccc2n1[B-](F)(F)[N+]1=C(c3ccc[nH]3)C=CC1=C2 (centres unmarked) [Risperidone-2-NB590] | 1.00 | 0.96 | –
O=C(CCOCCOCCOCCOCCNC(=O)CCc1ccc2n1[B-](F)(F)[N+]1=C(c3ccc[nH]3)C=CC1=C2)NCCCN1CCN(C2=Nc3cc(Cl)ccc3Nc3ccccc32)CC1 [Clozapine-a-2-NB590] | – | – | NanoBRET Fold Response (TSHR, 0.1μM tracer): 0.92; NanoBRET Fold Response (TSHR, 1μM tracer): 1.05
COc1ccc2[nH]c(-c3ccc(CNC(=O)CCOCCOCCOCCOCCNC(=O)CCc4ccc5n4[B-](F)(F)[N+]4=C(c6ccc[nH]6)C=CC4=C5)cc3)c(CCNC(C)=O)c2n1 [AzomelatoninICO9-2-NB590] | – | – | NanoBRET Fold Response (0.1μM tracer): 1.03; NanoBRET Fold Response (1μM tracer): 0.95
CN1CCN(C2=Nc3cc(Cl)ccc3Nc3ccc(CNC(=O)CCOCCOCCOCCOCCNC(=O)CCc4ccc5n4[B-](F)(F)[N+]4=C(c6ccc[nH]6)C=CC4=C5)cc32)CC1 [Clozapine-b-2-NB590] | – | – | NanoBRET Fold Response (TSHR, 0.1μM tracer): 1.04; NanoBRET Fold Response (TSHR, 1μM tracer): 0.99
COc1ccccc1N1CCN(CCCCN2C(=O)c3ccc(CNC(=O)CCOCCNC(=O)c4ccc(CNC(=O)CCc5ccc6n5[B-](F)(F)[N+]5=C(c7ccc[nH]7)C=CC5=C6)cc4)cc3C2=O)CC1 [NAN-190-3-NB590] | 1.01 | 1.04 | –
N#CN=C(NCCCOc1cccc(CN2CCCCC2)c1)NCCNC(=O)CCOCCOCCOCCOCCNC(=O)CCc1ccc2n1[B-](F)(F)[N+]1=C(c3ccc[nH]3)C=CC1=C2 [Aminopotentidine-2-NB590] | 1.07 | 1.01 | –
COc1ccccc1N1CCN(CCCCN2C(=O)c3ccc(CNC(=O)CCOCCOCCOCCOCCNC(=O)CCc4ccc5n4[B-](F)(F)[N+]4=C(c6ccc[nH]6)C=CC4=C5)cc3C2=O)CC1 [NAN-190-2-NB590] | 0.96 | 1.06 | –
O=C(CCOCCOCCOCCOCCNC(=O)CCc1ccc2n1[B-](F)(F)[N+]1=C(c3ccc[nH]3)C=CC1=C2)NCCCN1CCN(C2=Nc3ccccc3Oc3ccc(Cl)cc32)CC1 [Loxapine-a-2-NB590] | 0.97 | 1.07 | –
CCCn1c(=O)c2[nH]c(-c3ccc(OCC(=O)NCCNC(=O)CCOCCNC(=O)c4ccc(CNC(=O)CCc5ccc6n5[B-](F)(F)[N+]5=C(c7ccc[nH]7)C=CC5=C6)cc4)cc3)nc2n(CCC)c1=O [XAC-3-NB590] | 1.08 | 1.03 | –
CCOC(=O)c1cc(C#N)c(N2CCC(C(=O)NS(=O)(=O)Cc3ccccc3/C=C/C(=O)NCCNC(=O)CCc3ccc4n3[B-](F)(F)[N+]3=C(c5ccc[nH]5)C=CC3=C4)CC2)nc1C [AZD1283-1-NB590] | – | – | NanoBRET Fold Response (TSHR, 0.1μM): 1.00; NanoBRET Fold Response (TSHR, 1μM): 0.96
